In patent US8318813B2, “Method of treating binge eating disorder” (LCS Group, LLC, priority 2007, dated 2012):

Columns and labels:
[1] = system: Patient with Comorbid Generalized Anxiety Disorder, Major Depression, and ADHD; assay: Case report Patient 6: VYVANSE added to PAXIL
Description: The patient was maintained on PAXIL (paroxetine) 30 mg per day following a significant comorbid major depressive episode associated with anxiety symptoms, and a history consistent with Generalized Anxiety Disorder. […] However, after beginning a new job with more challenging responsibilities, the patient was unable to compensate for such deficits and a pattern of obsessive ruminations emerged, often involving work. In addition to perseverative and obsessive thinking, the patient experienced heightened anxiety and mild depressive symptoms, including fatigue, low mood, and amotivation, especially while at work. After discussing medication options and side effect concerns, VYVANSE was initiated to address underlying ADHD symptoms, which were felt to drive the patient's perseverative thinking, anxious ruminations, and low mood. […] PAXIL was maintained at 30 mg per day.

[2] = system: patient with Binge Eating Disorder, Medication-Induced Cognitive Problems, and Fatigue; assay: Case report Example 5: VYVANSE added to existing regimen; type: in vivo, human
Excerpt: The patient previously has been treated with therapy and has had multiple prior medication trials, either discontinued due to lack of efficacy or side effects, including ZOLOFT (sertraline), CELEXA (citalopram), PROZAC (fluoxetine), LEXAPRO (escitalopram), WELLBUTRIN SR (bupropion HCl), NORTRIPTYLINE, ATIVAN (lorazepam), ABILIFY (aripiprazole), RISPERDAL (risperidone), SEROQUEL (quetiapine), LYRICA (pregabalin), and RITALIN (methylphenidate). Selective serotonin reuptake inhibitors exacerbated binge eating symptoms and caused problematic weight gain. For treatment of depression with comorbid anxiety, binge-eating, and weight-gain related to binge eating symptoms, the patient was maintained on a medication regimen that included TOPAMAX (topiramate) 175 mg in the morning and 200 mg at night, LAMICTAL (lamotrigine) 200 mg in the morning, CYTOMEL (liothyronine) 25 mcg per day, KLONOPIN (clonazepam) 0.25 mg at bed time, and NEURONTIN (gabapentin) 600 mg at bedtime. […] Given prior poor response to a number of different classes of medication trials, off-label use of VYVANSE was initiated at 30 mg each morning to target a constellation of symptoms, including symptoms of major depression, binge-eating disorder, fatigue, and concentration problems. VYVANSE was maintained at 30 mg each morning for weeks before being discontinued due to adverse effects. […] However, there appeared to be no benefit on the patient's depressed mood, amotivation, and feelings of hopelessness.
This case exemplifies the clinical benefit of lisdexamfetamine dimesylate on binge-eating symptoms and potentially on weight-gain related to binging (body weight was not obtained), though longer-term treatment was cut short by adverse effects at the 30 mg dosage form. Given the number of failed prior trials, off-label use of VYVANSE was clinically indicated, especially given the severity of binge eating behavior.

[3] = system: Patient with ADHD, Generalized Anxiety Disorder, and Obsessive-Compulsive Behavior; assay: Case report Example 3: VYVANSE; type: in vivo, human
Excerpt: The patient is a non-geriatric adult diagnosed with a history of ADHD, inattentive type, and comorbid Generalized Anxiety Disorder, though had no prior treatment. Presenting ADHD symptoms included difficulty sustaining attention and attending to details, difficulty organizing tasks with tendencies toward avoidance, distractibility, and problems finishing tasks that have been initiated. Symptoms of Generalized Anxiety Disorder included frequent and intense ruminative worrying, feeling overly fatigued, muscle tension and intermittent problems with sleep. […] The patient was started on VYVANSE 30 mg in the morning, along with TRAZODONE 50 mg at bedtime. VYVANSE was maintained at 30 mg once daily in the morning for one week, followed by one week at 50 mg per day, and then 70 mg per day, taken in the morning. […] The patient maintained treatment on VYVANSE at 70 mg per day for 10 weeks; TRAZODONE 50 mg at bedtime was discontinued after 4 weeks as sleep patterns had sufficiently normalized. […] The patient previously felt little or no control around such worrying, ruminative behavior and speculated that it caused significant mental and even physical fatigue.
Stimulant medications have traditionally been associated with causing or worsening anxiety symptoms (for instance, being ‘anxiogenic’).

[4] = system: Patient with Comorbid Depressive Disorders and Binge Eating Behavior; assay: Case report Example 4: VYVANSE; type: in vivo, human
Excerpt: The patient also endorsed symptoms of ADHD, inattentive type, primarily around problems with organizing tasks, procrastination of work activities, and problems completing projects, though such ‘inattention’ symptoms were considered as clinically less detrimental than feeling chronically depressed, lacking motivation or interest in work or social activities, feeling fatigued and sometimes guilty, and having gained weight over several years due to ‘emotional eating’ behavior. The patient had received therapy in the past to address depressive episodes and associated life stressors, with modest benefit. The patient also described a history of ‘emotional eating’ that could occur at any time of day though more often in the late afternoons or early evenings. Such ‘emotional eating’ was often triggered by stressful situations or events, accompanied by an urge to eat, and would typically lead to excess consumption of carbohydrate-based foods. In recent years, the patient reported having gained over 10% body weight and noted a general trend toward increasing emotional eating and binging behavior. More severe binges occurred at least several times per month over a stretch of several years, though were much less common than ‘emotional eating’ that was milder in nature and occurred nearly daily. […] The patient was maintained on VYVANSE for 10 weeks at 50 mg per day. […] Symptoms of emotional eating were improved in the evenings as well, with less than one per week on average as compared to most evenings previously. […] The organization and execution of work-related tasks improved during the course of treatment as well.
The patient also began a trend of weight loss on account of decreased emotional eating and binging. The patient's ADHD was also clinically relevant, which is the primary reason VYVANSE was chosen as the initial medication treatment, though it was not the reason for which evaluation and treatment was sought and of secondary importance with regard to symptoms causing the patient difficulty and concern. […] Binge-eating behavior, largely taking the form of ‘self-soothing’ eating activity with potentially serious risks in this patient insofar as it was causing steady increased weight gain to the point of obesity), responded remarkably well to treatment with VYVANSE.

[5] = once per day dosing; cited from earlier work
[6] = system: Patient with Binge Eating Disorder and Major Depressive Disorders; assay: Case report Patient 2: lisdexamfetamine dimesylate monotherapy
[7] = system: Patient with Major Depressive Disorders and Binge Eating Disorder; assay: Case report Patient 1: lisdexamfetamine dimesylate added to ZOLOFT

Which “depressive and anxiety symptoms” value ([1]; PAXIL 30 mg per day) does the source give for `Fc1ccc([C@@H]2CCNC[C@H]2COc2ccc3c(c2)OCO3)cc1` [PAXIL, paroxetine] here?
The value was “rapidly stabilized”.

What does the source list for `CC1(C)O[C@@H]2[C@@H](CO[C@@]3(COS(N)(=O)=O)OC(C)(C)O[C@@H]23)O1` [TOPAMAX, topiramate]?
binge eating behavior ([2]; TOPAMAX 175 mg in the morning and 200 mg at night, clinically insufficient): helped reduce; tolerability ([2]; in vivo): poorly tolerated at higher doses due to cognitive side effects

With `CS(=O)(=O)O.CS(=O)(=O)O.C[C@@H](Cc1ccccc1)NC(=O)[C@@H](N)CCCCN` [lisdexamfetamine dimesylate, (2S)-2,6-diamino-N-[(1S)-1-methyl-2-phenylethyl]hexanamide dimethanesulfonate] as the compound, how does the “compulsive ruminating and worrying” value ([3]; 70 mg per day) read?
Its value is “highly significant improvement”.

And the “ability to sustain attention and attend to details, organize and finish projects, process information” value ([3]; 70 mg per day, compared to previous baseline function)?
The value was “significantly enhanced”.

What about the inattention symptoms ([3]; after 10 weeks at 70 mg per day) of the same compound?
The inattention symptoms was “only mildly affected”.

And the “'wear off' during treatment of Generalized Anxiety Disorder symptoms” value ([3]; for the duration of the day)?
Its value is “no problematic ‘wear off’”.

What about the “ADHD and Generalized Anxiety Disorder symptoms” value ([3]; within the first week, 30 mg in the morning with TRAZODONE 50 mg at bedtime) of the same compound?
The value was “positive effect”.

And the adverse effects ([4]; 30 mg per day for two weeks, increased to 50 mg per day)?
The adverse effects was “without any adverse effects”.

What about the “emotional eating behavior in the afternoon” value ([4]; 50 mg daily) of the same compound?
Its value is “abrupt and sustained cessation”.

And the depressive symptoms ([4]; 10 weeks at 50 mg per day)?
The depressive symptoms was “significant amelioration”.

And the major binges ([4]; at any point while taking VYVANSE, before at least several times per month)?
Its major binges is “no reported major binges”.

What about the “organization and execution of work-related tasks” value ([4]; during the course of treatment) of the same compound?
Its value is “improved”.

What about the “emotional eating in the evenings” value ([4]; on average, compared to most evenings previously) of the same compound?
Its value is “less than one”.

And the weight lost ([4]; over 2½ months of treatment)?
The weight lost was 6-7 pounds.

What about the “absolute binges per week” value ([2]; 30 mg each morning) of the same compound?
The value was “fewer”.

What about the “binge-eating days per week” value ([2]; 30 mg each morning) of the same compound?
Its value is “fewer”.

What about the “depressed mood, amotivation, and feelings of hopelessness” value ([2]; 30 mg each morning) of the same compound?
The value was “no benefit”.

And the “fatigue and concentration throughout the day” value ([2]; 30 mg each morning)?
Its value is “improvement”.

What about the urge to binge ([2]; 30 mg each morning, during the time of treatment) of the same compound?
Its urge to binge is “notably reduced”.

And the “adverse effects leading to discontinuation” value ([2]; 30 mg each morning, with TOPAMAX, LAMICTAL, CYTOMEL, KLONOPIN, NEURONTIN)?
The value was “excessive appetite suppression and visual blurring”.

What about the adverse effect ([1]; 30 mg per day for one week, titrated to 50 mg per day) of the same compound?
Its adverse effect is “without adverse effect”.

What about the “ADHD, Generalized Anxiety Disorder, and Major Depressive Disorder symptoms” value ([1]; ensuing 9 weeks, with PAXIL 30 mg per day) of the same compound?
Its value is “improvement”.

And the weight loss ([1]; over 2 months of treatment, VYVANSE 50 mg per day with PAXIL 30 mg per day)?
The weight loss was 4-5%.

What about the “mood, motivation and energy” value ([1]; with PAXIL 30 mg per day) of the same compound?
Its value is “improved”.

What about the worrying ([1]; with PAXIL 30 mg per day) of the same compound?
The worrying was “substantial reduction”.

What about the “time after administration for which significant effects have been demonstrated” value [5] of the same compound?
Its value is “up to 12 hours”.

What about the ADHD symptoms ([6]; Patient 2) of the same compound?
The ADHD symptoms was “as effective as […] XR”.

What about the triglyceride levels ([6]; end of 5 weeks of treatment, 271 mg/dL prior to treatment) of the same compound?
Its triglyceride levels is 160 mg/dL.

What about the binging episodes ([6]; first 2 weeks of treatment, before at least two days per week) of the same compound?
The binging episodes was “only once”.

What about the “depressive symptoms (depressed mood, interest level, sleep quality, physical fatigue)” value ([6]; monotherapy, about 10 weeks) of the same compound?
The value was “overall improvement”.

What about the “total body weight lost” value ([6]; obese patient, about 10 weeks on lisdexamfetamine dimesylate (70 mg from day 3)) of the same compound?
The value was “approximately 7%”.

And the binging episodes ([6]; subsequent 8 weeks of treatment)?
Its binging episodes is “stopped entirely”.

And the depressive symptoms ([7]; 8 weeks of maintenance on 70 mg in addition to 100 mg ZOLOFT (sertraline))?
The depressive symptoms was “full remission”.

And the binging days ([7]; for the 8 weeks at 70 mg daily along with 100 mg ZOLOFT)?
Its binging days is “no more than 3”.

What about the “reduction of binging eating days per month” value ([7]; from approximately 12 or more to no more than 3 per month) of the same compound?
Its value is “approximately 75%”.

What about the “binge eating days per month” value ([7]; while taking lisdexamfetamine dimesylate, before approximately 12 or more per month) of the same compound?
The value was “no more than 3 per month”.
